ChEMBL document CHEMBL5506037, “Synthesis of Heterocyclic Ring-Fused Bisnoralcohol Derivatives as Novel Small-Molecule Antiosteoporosis Agents” (J Med Chem, 2024)
Calls of active or inactive are those of the source. The calls are words filed in the database; no cut-off is given here.

Assays:
[1] = AUC (0 to t) in ICR mouse at 10 mg/kg, po measured upto 24 hrs by LC-MS/MS analysis; type: ADME, organism-based; settings: in vivo
Mus musculus [2] = experiment: Anti-osteoporosis activity in ovariectomized C57BL/6 mouse assessed as prevention of bone loss by measuring recovery of trabecular spacing in femur at 0.6 mg/kg, ip administered every day for 6 weeks by 3D-imaging analysis relative to control; type: functional
BMMC [3] = experiment: Anti-osteoclastogenesis activity in M-CSF/RANKL-induced C57BL/6J mouse BMMC cells assessed as inhibition of Itgb3 gene expression by RNA sequencing analysis; type: functional, cell-based
BMMC [4] = experiment: Anti-osteoclastogenesis activity in M-CSF/RANKL-induced C57BL/6J mouse BMMC cells assessed as inhibition of Mapk12 gene expression by RNA sequencing analysis; type: functional, cell-based
[5] = AUC (0 to t) in ICR mouse at 1 mg/kg, iv measured upto 24 hrs by LC-MS/MS analysis; type: ADME, organism-based; settings: in vivo
BMMC [6] = experiment: Anti-osteoclastogenesis activity in M-CSF/RANKL-induced C57BL/6J mouse BMMC cells assessed as inhibition of CALCR gene expression by RNA sequencing analysis; type: functional, cell-based
Mus musculus [7] = experiment: Anti-osteoporosis activity in ovariectomized C57BL/6 mouse assessed as prevention of bone loss by measuring recovery of BV/TV in femur at 0.6 mg/kg, ip administered every day for 6 weeks by 3D-imaging analysis relative to control; type: functional
BMMC [8] = experiment: Anti-osteoclastogenesis activity in M-CSF/RANKL-induced C57BL/6J mouse BMMC cells assessed as inhibition of osteoclast differentiation at 1 uM incubated for 7 days by TRAP staining based analysis relative to control; type: functional; settings: 168 h, time 7 day
BMMC [9] = experiment: Anti-osteoclastogenesis activity in M-CSF/RANKL-induced C57BL/6J mouse BMMC cells assessed as reduction in osteoclast generation at 0.5 uM incubated for 7 days by TRAP staining based analysis relative to control; type: functional; parameters: scale not given: the % may be the effect or the level left; settings: time 7 day
BMMC [10] = experiment: Anti-osteoclastogenesis activity in M-CSF/RANKL-induced C57BL/6J mouse BMMC cells assessed as inhibition of FCGR3 gene expression by RNA sequencing analysis; type: functional, cell-based
[11] = Toxicity in ovariectomized female C57BL/6 mouse assessed as reduction in body weight at 0.2 to 0.6 mg/kg, ip administered every day for 6 weeks; type: organism-based; settings: in vivo, 1008 h, dose 0.2-0.6 mg/kg
BMMC [12] = experiment: Anti-osteoclastogenesis activity in M-CSF/RANKL-induced C57BL/6J mouse BMMC cells assessed as reduction in CTSK mRNA expression at 0.05 to 5 uM measured after 2 days by RT-qPCR analysis; type: functional, cell-based; settings: dose 0.05-5 µM, time 2.0 day
BMMC [13] = experiment: Anti-osteoclastogenesis activity in M-CSF/RANKL-induced C57BL/6J mouse BMMC cells assessed as inhibition of Oscar gene expression by RNA sequencing analysis; type: functional, cell-based
BMMC [14] = experiment: Anti-osteoclastogenesis activity in M-CSF/RANKL-induced C57BL/6J mouse BMMC cells assessed as inhibition of Fosl2 gene expression by RNA sequencing analysis; type: functional, cell-based
BMMC [15] = experiment: Anti-osteoclastogenesis activity in M-CSF/RANKL-induced C57BL/6J mouse BMMC cells assessed as reduction in MMP9 mRNA expression at 0.05 to 5 uM measured after 2 days by RT-qPCR analysis; type: functional, cell-based; settings: dose 0.05-5 µM, time 2.0 day
[16] = Oral bioavailability in ICR mouse at 10 mg/kg measured upto 24 hrs by LC-MS/MS analysis; type: ADME, organism-based; settings: in vivo
BMMC [17] = experiment: Anti-osteoclastogenesis activity in M-CSF/RANKL-induced C57BL/6J mouse BMMC cells assessed as reduction in osteoclast generation at 0.05 uM incubated for 7 days by TRAP staining based analysis relative to control; type: functional; parameters: scale not given: the % may be the effect or the level left; settings: time 7 day
Mus musculus [18] = experiment: Anti-osteoporosis activity in ovariectomized C57BL/6 mouse assessed as prevention of bone loss by measuring reduction in osteoclast formation at 0.6 mg/kg, ip administered every day for 6 weeks by TRAP staining based analysis; type: functional, organism-based
BMMC [19] = experiment: Anti-osteoclastogenesis activity in M-CSF/RANKL-induced C57BL/6J mouse BMMC cells assessed as reduction in size and amount of osteoclasts by measuring reduction in F-actin ring formation incubated for 7 days by rhodamine-labeled phalloidin staining based fluorescence microscopic analysis; type: functional, cell-based; settings: dose 0.05-0.5 µM, time 7.0 day
BMMC [20] = experiment: Anti-osteoclastogenesis activity in M-CSF/RANKL-induced C57BL/6J mouse BMMC cells assessed as inhibition of Nfatc1 gene expression by RNA sequencing analysis; type: functional, cell-based
[21] = Cytotoxicity against M-CSF induced C57BL/6J mouse BMMC cells assessed as cell viability at 10 uM incubated for 48 hrs by CCK-8 assay relative to control; type: toxicity, cell-based; settings: read-out: Activity
[22] = Tmax in ICR mouse at 1 mg/kg, iv measured upto 24 hrs by LC-MS/MS analysis; type: ADME, organism-based; settings: in vivo

With `CCNC(=O)[C@@H](C)[C@H]1CC[C@H]2[C@@H]3CC=C4C(C)(C)c5nnsc5C[C@]4(C)[C@H]3CC[C@]12C` the AUC(0-t) at 24 h [1] was 654 ng·h/mL, the Activity (Mus musculus [2]) was 61.09% and the Activity (BMMC [3]) was “Active”. For the same compound, the Activity (BMMC [4]) was “Active”, the AUC(0-t) at 24 h [5] was 509 ng·h/mL and the Activity (BMMC [6]) was “Active”. For the same compound, the Activity (Mus musculus [7]) was 57.15%, the inhibition at 1 µM (BMMC [8]) was 100% and the Activity (BMMC [9]) was about 100%. The Activity (BMMC [10]) was “Active”, the Activity [11] was “Non-Toxic” and the Activity (BMMC [12]) was “Active”. For the same compound, the Activity (BMMC [13]) was “Active”, the Activity (BMMC [14]) was “Active” and the Activity (BMMC [15]) was “Active”. The bioavailability [16] was 13.1%, the Activity (BMMC [17]) was 50% and the Activity (Mus musculus [18]) was “Active”. The Activity (BMMC [19]) was “Dose-Dependent Effect”, the Activity (BMMC [20]) was “Active” and the viability at 48 h, 10 µM [21] was at least 100%. The Tmax [22] was 4.8 min.
